Like-named read-outs stand apart in the source and are kept apart here. Marks after values point to notes of the source that are not given here.
Legend:
NCI-H295R cells = experiment: H295R steroidogenesis assay; assay type: cell-based, human; conditions: for Effect on androgen (steroid) synthesis, in words: H295R steroidogenesis assay; for IC20: read-out: Testosterone inhibition (IC20 µM); for IC50: 48 h, read-out: Testosterone inhibition (IC50, μM)
Method: To capture effects on steroid hormone synthesis (testosterone and androstendione), we tested all 12 pesticides in the H295R assay with the human adrenocortical carcinoma cell line NCI-H295R (American Type Culture Collection no. CRL-2,128, LGC Standards), as previously described ([Hecker et al. 2011]; [Rosenmai et al. 2013]). In brief, cells were cultured in DMEM/F-12 +glutamine medium with HEPES buffer (Invitrogen) containing 1% insulin-transferrin-sodium selenite plus Premix (VWR) and 2.5% Nu-Serum (BD Bioscience) at 37°C in a 5% CO2 atmosphere. The day before exposure, cells were seeded 300,000 per well in clear 24-well plates (VWR Corning). Cells were exposed for 48 h to control (Forskolin: 1μM , 10μM (Sigma-Aldrich); and Prochloraz: 0.3μM , 3μM (VWR-Bie and Berntsen) or test compounds. The vehicle (DMSO) concentration was kept constant in all wells (0.1%). After 48 h, the exposure culture medium was removed and stored at –80°C until the levels of 10 steroid hormones (testosterone, androstenedione, aldosterone, corticosterone, cortisol, dehydroepiandrosterone, 17α-hydroxyprogesterone , progesterone, estrone, and 17β-estradiol ) were quantified using the high-performance liquid chromatography–tandem mass spectrometry method described elsewhere ([Mortensen and Pedersen 2007]). Minor modifications were made to accommodate a smaller sample size and to include more hormones. The liquid chromatography system (Agilent 1100) was equipped with an Atlantis C18 column ( 2.1×150mm , 3μm ) (Waters Corp.) maintained at 40°C. The sample injection volume was 50μL . […] The mass spectrometer was a Quattro Ultima triple quadrupole instrument (Waters Corp.). […] Each pesticide was tested in 2-fold serial dilutions at concentrations between 0.8 and 50μM in three independent experiments, and hormone levels were normalized to the solvent controls containing 0.1% DMSO. Cell viability was evaluated by using the 3-(4,5-dimethylthiazol-2-yl)-2,5- diphenyltetrazolium bromide (MTT) assay (Sigma) as previously described ([Hecker et al. 2011]; [Rosenmai et al. 2013]). Fluorescence was measured (excitation 560 nm , emission 590 nm ) using a Wallac Victor2 1420 multilabel counter (PerkinElmer).

[1] = PBK model first-order kinetic parameters fitted to in vivo ADME data; set-up: species or system rat; conditions: for Metabolism rate in liver, Total (L/h) KMetab: metabolic clearance
[2] = set-up: method as in U.S. EPA 2012; conditions: EPI Suite, experimental preferred over modeled; ref U.S. EPA 2012; cited from earlier work
[3] = cited from earlier work
pregnant dams and pups = conditions: cited from earlier work; for Critical toxicity / LOAEL (mg/kg bw) / NOAEL (mg/kg bw): ref EFSA's Draft Assessment Reports (DARs)
[4] = Fetal chemical exposure analysis (LC-QTOF) at GD21; assay type: in vivo, rat; conditions: male, Wistar, rat, in vivo, 60 mg/kg/day
Method: Dams were decapitated under CO2 /oxygen anesthesia at GD21 and fetuses collected by cesarean section. Prior to decapitation of the fetuses, their BWs and AGDs were recorded. Blood from the dams was collected in heparinized vacutainer tubes, centrifuged at 125×g for 10 min at 4°C to prepare plasma, and, together with the amniotic fluid, frozen directly. Pooled trunk blood from all female and male fetuses of the same litter (female and male blood separately) was collected into heparin-treated capillary tubes approximately 90 min after dosing and the plasma was prepared and stored at −80°C until analysis for pesticides and selected metabolites by liquid chromatography quadrupole time-of-flight mass spectroscopy (LC-QTOF). Details about the LC-QTOF analyses are provided in “Method S1” in Supplemental Material. Amniotic fluid was collected from fetuses by pipetting, pooled within each litter, snap frozen in liquid nitrogen, and subsequently stored at −80 °C .
Method S1. Chemical analysis of pesticide levels
Acetonitrile, methanol, formic acid and 25% ammonium hydroxide, all of LC-MS grade and ethyl acetate were obtained from Sigma Aldrich, Schneldorf, Germany. Isolute bulk C-18 sorbent was obtained from Biotage, Sweden and was washed with acetonitrile and ethyl acetate and dried prior to use. Water was purified on a Milli Q system, Millipore Corporation, US.
Pesticide standards were purchased from Dr. Ehrenstorfer (Augsburg, Germany), LGC-standards (Teddington, Middlesex, UK) and Sigma Aldrich (St. Louis, MO, USA). Acetonitrile used as solvents for the LC-QTOF was LiChrosolv Hypergrade. An ESI-L low concentration tuning mix from Agilent (Santa Clara, CA, USA) was used for tuning of the TOF. A reference solution was prepared containing Purine and HP0921 from Agilent (Santa Clara, CA, USA).
Stock solutions of the pesticides were prepared at 1 mg/ml in acetonitrile, methanol or toluene.
Standard mixtures containing the test compounds were prepared at a concentration of 10 µg/ml acetonitrile and used for preparation of calibration solutions. Isomers eluting very close to each other were avoided in these mixtures. […]
added 200 µl of ice-cold acetonitrile in Eppendorf tubes. Internal standard was added in the form of 10 µl TPP (5 µg/ml) and the extraction was performed by whirl mixing. The tube was then stored on ice for 5 min and then centrifuged at 10,000 x g for 10 min at 4 °C (Ole Dich Instrument, Denmark). An aliquot of the supernatant was transferred to filter vials (0.45 µm) and analysed by […]
Quality control samples were included in each analytical run. These were prepared using the same procedure as for the samples, though using amniotic fluid from untreated control Wistar rats extracted with acetonitrile containing three different levels of the relevant pesticide standards. The resulting spike levels were 0.04, 0.013 and 0.13 µg/ml. […]
fluid or plasma from Sprague Dawley rats was transferred to an Eppendorf vial and added 150 µl of acetonitrile. 50 mg of isolute C-18 sorbent was added to the tube, which was shaken for 5 min, […]
cooled to 4 °C and centrifuged at 10,000 x g for 10 min at 4 °C (Ole Dich Instrument makers, Denmark). 20 µl of the supernatant was transferred to an HPLC vial and mixed with 80 µl of 5%- 75% acetonitrile (this percentage was analyte dependent) prior to analysis by LC-MS.LC -QTOF […]
Pesticide screening was carried out using a liquid chromatography-electrospray ionization-quadrupole-time of flight-mass spectrometer.
The LC system was connected to a Bruker Daltonics, maXis qTOF mass spectrometer equipped with an electrospray ion source operated in positive ion mode (Bruker Daltonics, Bremen, Germany). The ion source settings were: nebulizer pressure 2 bars, drying gas flow 8 l/min, dry gas temperature 200 °C, capillary voltage 2500 V. The scan range was from 80 to 700 m/z with an acquisition rate of 2 Hz. Sodium formate dissolved in 50% 2-propanol was introduced in the ion […]

Wistar rats [5] = conditions: rat, in vivo
Wistar rats [6] = experiment: In vivo Study 3 (fludioxonil, cyprodinil, dimethomorph), reproductive/developmental toxicity, AGD
Sprague-Dawley rats = experiment: In vivo Study 2 (linuron), reproductive/developmental toxicity, AGD; conditions: for AGDI mean: Study 2, male pups; for AGDI reduction (%): male offspring, normalized AGDI scale

SMILES | Effect on androgen (steroid) synthesis, in words (NCI-H295R cells) | Estradiol, LOEC (NCI-H295R cells; multiple contrast tests) | Testosterone, lowest observed effect concentration (LOEC) (NCI-H295R cells; multiple contrast tests) | Fecal excretion rate from gut (L/h) KFeces ([1]; PBK model parameter) | Portal GI absorption rate into liver (L/h) KAS ([1]; PBK model parameter) | Urine excretion rate from kidney (L/h) KUrine ([1]; PBK model parameter) | Metabolism rate in liver, Total (L/h) KMetab ([1]; PBK model parameter) | log Kow [2] | Critical toxicity (pregnant dams and pups) | LOAEL (mg/kg bw) (pregnant dams and pups) | NOAEL (mg/kg bw) (pregnant dams and pups) | IC50 (NCI-H295R cells; Homo sapiens, NCI-H295R) | IC20 (NCI-H295R cells; Homo sapiens, NCI-H295R) | Corticosterone, LOEC (NCI-H295R cells; multiple contrast tests) | Cortisol, LOEC (NCI-H295R cells; multiple contrast tests) | also measured
Oc1ccccc1-c1ccccc1 [o -Phenylphenol, o -phenylphenol] | inhibited testosterone synthesis | 25 µM | 50 µM | 0.1 L/h | 1 L/h | 0.01 L/h | 0.2 L/h | 3.09 | Maternal BW gain, bladder & kidney effect | 140 mg/kg bw | 40 mg/kg bw |  |  |  |  | IC20 (NCI-H295R cells; NCI-H295R cells): 25 µM; Unbound plasma fraction (%) ([3]; ref Wetmore et al. (2012)): 4.1^g %
NC(=O)Nc1ccc(Cl)c(Cl)c1 [DPU, 1-(3,4-Dichlorophenyl)urea] |  |  |  |  |  | 0.05 L/h |  | 2.00 |  |  |  | 5 µM |  |  |  | Metabolism rate in liver, Metabolite ([1]; conversion of parent compound into active metabolite): 0.25 L/h
CC1(C)[C@H](C(=O)O[C@H](C#N)c2cccc(Oc3ccccc3)c2)[C@@H]1/C=C(\Cl)C(F)(F)F (racemic) [λ-Cyhalothrin, λ-cyhalothrin] | no effect on any measured androgen |  |  | 4 L/h | 1 L/h | 0.05 L/h | 0.3 L/h | 6.80 | Reduced maternal and pup BW |  |  |  | > 50 µM | 3.1 µM | 3.1 µM | 
CC1(C(=O)Nc2ccc(O)c(Cl)c2Cl)CCCCC1 [Fenhexamide, fenhexamid] | inhibited testosterone synthesis | 12.5 µM | 6.3 µM | 3 L/h | 1 L/h | 0.05 L/h | 0.15 L/h | 3.51 | Reduced maternal body and organ weight | 450 mg/kg bw | 45 mg/kg bw |  | 5.2 µM | 3.1 µM | 3.1 µM | Androstendione, LOEC (NCI-H295R cells; multiple contrast tests): 12.5 µM; DHEA, LOEC (NCI-H295R cells; multiple contrast tests): 12.5 µM; OH-Progesterone, LOEC (NCI-H295R cells; multiple contrast tests): 25 µM; Progesterone, LOEC (NCI-H295R cells; multiple contrast tests): 12.5 µM; Unbound plasma fraction (%) ([3]; plasma): 5.7^g %
Cc1cc(C2CC2)nc(Nc2ccccc2)n1 [Cyprodinil, cyprodinil] | inhibited testosterone synthesis | 6.3 µM | 6.3 µM | 1 L/h | 1 L/h | 0.2 L/h | 0.01 L/h | 4.00 | Reduced maternal and pup BW |  | 71 mg/kg bw | 8.5 µM | 0.4 µM | 25 µM | 25 µM | Androstendione, LOEC (NCI-H295R cells; multiple contrast tests): 6.3 µM; Biliary excretion rate (L/h) KBiliary ([1]; PBK model parameter): 1.6 L/h; Measured concentration in male fetuses [4]: 6.6 µM; Shortening of AGDI compared with male controls (normalized AGDI scale) (Wistar rats [5]; male, Wistar (HanTac:WH)): around 10%; AGDI mean (Wistar rats [5]; male, Wistar, 20 mg/kg): 2.13; AGDI mean (Wistar rats [5]; male, Wistar, 60 mg/kg): 1.98; AGDI reduction (%) (Wistar rats [5]; male, Wistar, 60 mg/kg/day): 16%; AGDI mean (Wistar rats [5]; male, Wistar, 180 mg/kg): 2.09; Nipple retention at PD14, statistics in words (Wistar rats [5]): no statistically significant effects on nipple retention; Maternal liver toxicity (pregnant dams and pups; 180 mg/kg per day, ref EFSA 2005): induce maternal liver toxicity; % postnatal deaths (Wistar rats [6]; 20 mg/kg bw/day): 1.2 ± 3.7%; % postnatal deaths (Wistar rats [6]; 60 mg/kg bw/day): 0.0 ± 0.0%; % postnatal deaths (Wistar rats [6]; 180 mg/kg bw/day): 0.0 ± 0.0%
Cc1cc(C)nc(Nc2ccccc2)n1 [Pyrimethanil, pyrimethanil] | no effect on any measured androgen |  |  | 0.1 L/h | 1 L/h | 0.01 L/h | 0.8 L/h | 2.84 | Reduced maternal and pup BW | 294 mg/kg bw | 23 mg/kg bw |  | > 50 µM |  |  | Unbound plasma fraction (%) ([3]; plasma): 2.0^g %
CON(C)C(=O)Nc1ccc(Cl)c(Cl)c1 [Linuron, linuron, reference compound] | inhibited the synthesis of androgens |  |  | 0.08 L/h | 0.5 L/h | 0.05 L/h | 1.0 L/h | 3.20 |  |  |  | 27 µM |  |  |  | Unbound plasma fraction (%) ([3]; ref Wetmore et al. (2012)): 10.5^g %; AGDI ED10 (Sprague-Dawley rats; Study 2, dose causing 10% AGDI reduction, regression): 27 mg/kg BW; AGDI mean (Sprague-Dawley rats; dose 25 mg/kg BW (control 1.00)): 0.91; AGDI mean (Sprague-Dawley rats; dose 50 mg/kg BW (control 1.00)): 0.72; Maternal toxicity (Sprague-Dawley rats; highest dose, 75 mg/kg per day): Maternal toxicity was observed; AGDI reduction (%) (Sprague-Dawley rats; dose 25 mg/kg BW per day): 9%; AGDI reduction (%) (Sprague-Dawley rats; dose 50 mg/kg BW per day): 28%
